Test results taken from ChEMBL document CHEMBL1201862, “PubChem BioAssay data set” (2004).
Blank lines part the entries; values can stand above or below the molecule they belong to. The source made the active and inactive calls.

Tests used:
Paired box protein Pax-8 = Paired box protein Pax-8 (Homo sapiens, UniProt Q06710); experiment: inhibitors of PAX8-driven TPO luciferase reporter, dose response, RMG-I cells, cherry-pick (AID 687027); assay type: functional, cell-based;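 also: luciferase reporter driven by Pax8 target thyroperoxidase promoter measured by SteadyGlo luminescence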
[1] = PAX2 cell-based inhibition, dose response, selectivity assay for PAX8 inhibitor project, plate reader, dry powder samples (AID 743048); assay type: functional;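 also: HEK293 cells carrying a WT1 promoter luciferase reporter driven by expressed Pax2; potency is for inhibition of Pax2 driven reporter signal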
[2] = cytotoxicity in COV362 ovarian cancer cells, dose response, cytotoxicity control for PAX8 inhibitor project, cell-based, plate reader, dry powder, SA12 (AID 743144); assay type: functional
[3] = IOSE-T80 ovarian epithelial cell cytotoxicity, dose response, cytotoxicity control for PAX8 inhibitor project, plate reader, dry powder samples (AID 743045); assay type: functional, cell-based
[4] = NIH:OVCAR-3 ovarian cancer cell cytotoxicity, dose response, PAX8 inhibitor project, plate reader, dry powder samples (AID 743044); assay type: functional, cell-based
[5] = PAX5 activity inhibitors, dose response, selectivity assay for PAX8 inhibitor project, cell-based, plate reader, dry powder samples (AID 743047); assay type: functional;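 also: HEK293 cells carrying a Pax5 driven CD19 promoter luciferase reporter; potency of inhibitors that lower reporter luminescence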
[6] = IGROV1 ovarian cancer cell cytotoxicity, dose response, PAX8 inhibitor project, plate reader, dry powder samples (AID 743043); assay type: functional, cell-based; details: IGROV-1
[7] = cytotoxicity in OVCAR4 cells, dose response, cytotoxicity control for PAX8 inhibitor project, cell-based, plate reader, dry powder, SA11 (AID 743150); assay type: functional; details: OVCAR-4
[8] = cytotoxicity in COV434 cells, dose response, cytotoxicity control for PAX8 inhibitor project, cell-based, plate reader, dry powder, SA7 (AID 743145); assay type: functional
[9] = cytotoxicity in OV-90 ovarian cancer cells, dose response, PAX8 inhibitor project, cell-based, plate reader, dry powder, SA8 (AID 743149); assay type: functional
[10] = cytotoxicity dependent on PAX8, dose response, cell-based, plate reader, dry powder (AID 743049); assay type: functional
[11] = biological target: Potassium channel subfamily K member 9 (Homo sapiens, UniProt Q9NPC2); experiment: TASK3 (KCNK9) channel inhibitors, thallium flux, SAR follow-up, selectivity assay for TASK1 inhibitor project, cell-based, FluxOR thallium flux, concentration-response (AID 652211); assay type: functional;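 also: potency is for inhibitors of the channel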
[12] = biological target: Potassium channel subfamily K member 3 (Homo sapiens, UniProt O14649); experiment: TASK1 (KCNK3) potassium channel inhibitors, SAR follow-up, CHO cells, FluxOR thallium flux (AID 652212); assay type: functional
[13] = biological target: C-X-C chemokine receptor type 4 (Homo sapiens, UniProt P61073); experiment: SAR analysis of small molecule antagonists of the CXCR6 receptor using a CXCR4 receptor luminescent beta-arrestin counterscreen.; assay type: functional
[14] = biological target: T1, C-C chemokine receptor type 6 (Homo sapiens, UniProt P51684); experiment: SAR analysis of small molecule antagonists of the CXCR6 receptor using a CCR6 receptor luminescent beta-arrestin counterscreen.; assay type: functional
T1 sequence (P51684 whole entry): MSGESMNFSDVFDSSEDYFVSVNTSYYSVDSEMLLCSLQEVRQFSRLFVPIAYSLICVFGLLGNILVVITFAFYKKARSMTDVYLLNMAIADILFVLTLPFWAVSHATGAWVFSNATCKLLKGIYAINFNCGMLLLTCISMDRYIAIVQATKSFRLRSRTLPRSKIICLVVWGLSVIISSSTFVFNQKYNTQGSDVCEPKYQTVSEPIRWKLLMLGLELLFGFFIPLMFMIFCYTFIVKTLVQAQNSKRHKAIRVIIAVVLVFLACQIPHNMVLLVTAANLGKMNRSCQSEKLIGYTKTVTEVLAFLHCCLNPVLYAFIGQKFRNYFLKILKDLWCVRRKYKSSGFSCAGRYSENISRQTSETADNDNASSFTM

Hexokinase-1 = biological target: T2, Hexokinase-1 (Homo sapiens, UniProt P19367); experiment: SAR analysis of small molecule inhibitors of hexokinase domain containing I (HKDC1) in the hexokinase 1 selectivity assay. [Related pubchem assays (depositor defined):AID493160, AID493190]; assay type: functional
T2 sequence (P19367 whole entry): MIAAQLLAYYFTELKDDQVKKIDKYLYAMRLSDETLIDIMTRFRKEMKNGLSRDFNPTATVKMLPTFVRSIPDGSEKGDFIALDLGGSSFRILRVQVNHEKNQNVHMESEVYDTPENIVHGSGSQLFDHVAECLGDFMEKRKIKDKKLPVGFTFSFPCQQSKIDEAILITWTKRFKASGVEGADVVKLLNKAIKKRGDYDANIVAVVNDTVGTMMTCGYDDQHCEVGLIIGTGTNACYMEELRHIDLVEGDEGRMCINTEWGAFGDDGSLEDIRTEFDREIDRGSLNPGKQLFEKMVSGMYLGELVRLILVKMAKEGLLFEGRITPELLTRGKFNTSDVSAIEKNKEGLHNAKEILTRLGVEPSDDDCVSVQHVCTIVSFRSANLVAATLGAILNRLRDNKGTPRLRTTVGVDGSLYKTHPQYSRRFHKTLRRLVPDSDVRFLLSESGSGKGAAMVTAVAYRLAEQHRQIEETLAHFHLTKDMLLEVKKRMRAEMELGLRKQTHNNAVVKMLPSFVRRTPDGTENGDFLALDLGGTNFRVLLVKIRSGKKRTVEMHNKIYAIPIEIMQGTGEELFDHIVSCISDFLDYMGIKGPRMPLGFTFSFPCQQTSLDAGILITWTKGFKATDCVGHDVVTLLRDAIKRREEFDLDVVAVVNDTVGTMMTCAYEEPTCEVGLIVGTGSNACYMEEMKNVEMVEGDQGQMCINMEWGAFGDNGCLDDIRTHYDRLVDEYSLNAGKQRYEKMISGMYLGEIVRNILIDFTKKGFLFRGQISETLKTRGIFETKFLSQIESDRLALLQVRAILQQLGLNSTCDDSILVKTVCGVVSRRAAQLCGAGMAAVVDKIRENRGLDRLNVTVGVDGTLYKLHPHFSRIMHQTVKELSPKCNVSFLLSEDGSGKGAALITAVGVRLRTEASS

Hexokinase HKDC1 = biological target: T3, Hexokinase HKDC1 (Homo sapiens, UniProt Q2TB90); experiment: SAR analysis of small molecule inhibitors of hexokinase domain containing I (HKDC1). [Related pubchem assays (depositor defined):AID493160, AID493190]; assay type: functional
T3 sequence (Q2TB90 whole entry): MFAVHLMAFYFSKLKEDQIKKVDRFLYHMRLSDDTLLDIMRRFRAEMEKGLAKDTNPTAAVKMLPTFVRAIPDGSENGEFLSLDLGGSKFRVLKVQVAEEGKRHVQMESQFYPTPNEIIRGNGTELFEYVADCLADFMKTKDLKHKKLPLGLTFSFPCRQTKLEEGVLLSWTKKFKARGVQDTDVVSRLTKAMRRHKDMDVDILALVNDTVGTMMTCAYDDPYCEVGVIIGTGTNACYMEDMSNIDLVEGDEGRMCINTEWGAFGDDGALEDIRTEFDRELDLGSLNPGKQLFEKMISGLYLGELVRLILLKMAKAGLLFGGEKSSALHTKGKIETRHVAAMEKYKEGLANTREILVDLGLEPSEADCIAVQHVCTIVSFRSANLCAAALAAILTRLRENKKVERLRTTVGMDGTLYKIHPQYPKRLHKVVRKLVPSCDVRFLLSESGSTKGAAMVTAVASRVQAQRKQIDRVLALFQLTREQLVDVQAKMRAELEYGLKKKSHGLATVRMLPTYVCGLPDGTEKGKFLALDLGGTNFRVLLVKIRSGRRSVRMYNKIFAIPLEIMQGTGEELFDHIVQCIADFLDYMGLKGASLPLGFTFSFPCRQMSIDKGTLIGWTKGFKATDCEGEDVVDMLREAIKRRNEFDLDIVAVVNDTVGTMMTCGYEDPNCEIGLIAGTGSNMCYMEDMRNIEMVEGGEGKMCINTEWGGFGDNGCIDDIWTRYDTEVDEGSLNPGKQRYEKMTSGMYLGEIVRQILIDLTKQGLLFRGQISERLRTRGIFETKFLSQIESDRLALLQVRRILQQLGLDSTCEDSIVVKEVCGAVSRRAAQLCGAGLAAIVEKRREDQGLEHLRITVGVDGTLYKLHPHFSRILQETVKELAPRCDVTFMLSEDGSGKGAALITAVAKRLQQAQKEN

[15] = BHK-21 cell cytotoxicity, cytotoxicity control for flavivirus guanylyltransferase probe project, secondary screen (AID 624078); assay type: functional
[16] = biological target: NAD-dependent protein deacylase sirtuin-5, mitochondrial (Homo sapiens, UniProt Q9NXA8); experiment: SIRT5 desuccinylase inhibitors, dose response, biochemical, fluorescence imaging, cherry-pick, set 5 (AID 720591);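 also: desuccinylation of succinyl peptide AMC substrate read as fluorescence after trypsin release; potency of inhibitors that lower fluorescence and may act on trypsin instead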
[17] = Late-stage results from the probe development effort to identify antagonists of arginine vasopressin receptor 1a (AVPR1a): fluorescence-based cell-based dose response AVPR1a inhibition assay.; assay type: functional
Vasopressin V1b receptor = Vasopressin V1b receptor (Homo sapiens, UniProt P47901); experiment: Late-stage results from the probe development effort to identify antagonists of arginine vasopressin receptor 1a (AVPR1a): fluorescence-based cell-based dose response AVPR1b inhibition counterscreen assay.; assay type: functional
Vasopressin V2 receptor = Vasopressin V2 receptor (Homo sapiens, UniProt P30518); experiment: Late-stage results from the probe development effort to identify antagonists of arginine vasopressin receptor 1a (AVPR1a): fluorescence-based cell-based dose response AVPR2 inhibition counterscreen assay.; assay type: functional
[18] = Late-stage results from the probe development effort to identify antagonists of arginine vasopressin receptor 1a (AVPR1a): fluorescence-based cell-based dose response OXTR inhibition counterscreen assay.; assay type: functional

Chain of Vasopressin V2 receptor (P30518 whole entry): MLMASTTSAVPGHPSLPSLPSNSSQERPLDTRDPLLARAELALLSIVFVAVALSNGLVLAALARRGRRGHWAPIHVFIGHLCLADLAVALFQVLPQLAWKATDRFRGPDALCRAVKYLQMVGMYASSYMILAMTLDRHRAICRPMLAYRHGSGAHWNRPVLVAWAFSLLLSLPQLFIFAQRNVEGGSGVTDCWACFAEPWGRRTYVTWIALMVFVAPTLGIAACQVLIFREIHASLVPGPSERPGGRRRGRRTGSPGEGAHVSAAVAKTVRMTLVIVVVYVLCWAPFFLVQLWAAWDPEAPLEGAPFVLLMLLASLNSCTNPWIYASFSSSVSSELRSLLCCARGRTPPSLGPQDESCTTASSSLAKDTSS
Chain of Potassium channel subfamily K member 9 (Q9NPC2 whole entry): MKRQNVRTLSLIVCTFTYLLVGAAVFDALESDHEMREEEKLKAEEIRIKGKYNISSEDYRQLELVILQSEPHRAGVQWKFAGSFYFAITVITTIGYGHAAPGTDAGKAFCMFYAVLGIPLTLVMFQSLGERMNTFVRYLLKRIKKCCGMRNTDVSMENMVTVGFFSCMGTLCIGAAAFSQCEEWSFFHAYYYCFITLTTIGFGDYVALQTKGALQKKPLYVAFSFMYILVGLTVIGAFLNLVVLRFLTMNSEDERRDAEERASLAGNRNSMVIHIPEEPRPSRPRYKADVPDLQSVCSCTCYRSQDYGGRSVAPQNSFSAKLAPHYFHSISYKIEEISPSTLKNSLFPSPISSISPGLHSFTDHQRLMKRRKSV
Chain of C-X-C chemokine receptor type 4 (P61073 whole entry): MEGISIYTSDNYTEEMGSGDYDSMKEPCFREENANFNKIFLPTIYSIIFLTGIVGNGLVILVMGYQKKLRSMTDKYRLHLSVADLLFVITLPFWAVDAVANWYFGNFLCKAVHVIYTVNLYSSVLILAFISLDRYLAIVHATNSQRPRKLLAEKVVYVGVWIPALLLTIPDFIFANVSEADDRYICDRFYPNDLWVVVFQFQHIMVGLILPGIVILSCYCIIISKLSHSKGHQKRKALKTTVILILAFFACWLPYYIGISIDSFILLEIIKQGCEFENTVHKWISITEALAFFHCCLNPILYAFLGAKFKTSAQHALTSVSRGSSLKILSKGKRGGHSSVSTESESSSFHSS
Chain of Vasopressin V1b receptor (P47901 whole entry): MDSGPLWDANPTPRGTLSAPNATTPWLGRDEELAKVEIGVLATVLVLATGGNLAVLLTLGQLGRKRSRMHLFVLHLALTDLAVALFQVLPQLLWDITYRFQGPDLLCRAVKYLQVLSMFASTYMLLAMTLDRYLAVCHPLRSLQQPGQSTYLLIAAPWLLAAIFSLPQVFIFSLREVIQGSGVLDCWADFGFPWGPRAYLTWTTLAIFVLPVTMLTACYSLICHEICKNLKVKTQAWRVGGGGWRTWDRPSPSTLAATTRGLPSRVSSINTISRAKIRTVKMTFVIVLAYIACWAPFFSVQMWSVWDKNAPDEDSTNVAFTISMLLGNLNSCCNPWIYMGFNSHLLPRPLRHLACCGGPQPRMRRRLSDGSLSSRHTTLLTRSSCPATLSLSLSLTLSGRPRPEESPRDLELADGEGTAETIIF
Chain of NAD-dependent protein deacylase sirtuin-5, mitochondrial (Q9NXA8 whole entry): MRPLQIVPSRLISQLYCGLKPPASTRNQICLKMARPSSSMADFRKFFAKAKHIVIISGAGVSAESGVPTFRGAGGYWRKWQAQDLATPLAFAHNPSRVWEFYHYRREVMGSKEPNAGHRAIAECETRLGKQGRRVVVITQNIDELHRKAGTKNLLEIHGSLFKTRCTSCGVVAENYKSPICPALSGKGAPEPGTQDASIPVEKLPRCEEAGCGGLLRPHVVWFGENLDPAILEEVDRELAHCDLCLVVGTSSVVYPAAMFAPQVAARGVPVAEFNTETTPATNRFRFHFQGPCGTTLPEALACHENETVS
Chain of Paired box protein Pax-8 (Q06710 whole entry): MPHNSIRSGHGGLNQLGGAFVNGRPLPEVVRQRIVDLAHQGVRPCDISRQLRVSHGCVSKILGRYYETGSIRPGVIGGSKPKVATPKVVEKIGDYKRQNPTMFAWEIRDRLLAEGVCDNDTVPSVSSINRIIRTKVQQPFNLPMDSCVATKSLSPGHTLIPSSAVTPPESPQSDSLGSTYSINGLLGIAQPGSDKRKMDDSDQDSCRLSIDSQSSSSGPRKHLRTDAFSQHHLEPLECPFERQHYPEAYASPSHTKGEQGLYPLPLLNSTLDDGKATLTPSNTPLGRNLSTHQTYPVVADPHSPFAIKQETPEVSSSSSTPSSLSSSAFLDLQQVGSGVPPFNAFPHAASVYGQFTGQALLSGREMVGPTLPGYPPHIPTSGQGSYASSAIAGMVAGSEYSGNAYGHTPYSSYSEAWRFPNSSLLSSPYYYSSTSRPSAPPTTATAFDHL
Chain of Potassium channel subfamily K member 3 (O14649 whole entry): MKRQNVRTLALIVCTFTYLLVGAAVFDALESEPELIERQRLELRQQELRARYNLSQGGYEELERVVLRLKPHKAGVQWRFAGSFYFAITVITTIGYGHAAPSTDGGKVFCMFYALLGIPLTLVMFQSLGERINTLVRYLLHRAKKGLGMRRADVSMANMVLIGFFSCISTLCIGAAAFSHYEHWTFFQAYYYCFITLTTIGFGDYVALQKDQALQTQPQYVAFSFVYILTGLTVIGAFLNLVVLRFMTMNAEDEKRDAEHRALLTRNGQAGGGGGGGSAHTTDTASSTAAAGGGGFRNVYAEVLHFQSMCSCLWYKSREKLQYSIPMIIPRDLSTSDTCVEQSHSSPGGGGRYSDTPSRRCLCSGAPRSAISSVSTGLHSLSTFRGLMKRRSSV

- IC50 (Hexokinase-1): 50.6 µM (inactive)
- IC50 (Hexokinase HKDC1): 5.44 µM (active)
Structure (SMILES): Cc1ccc(S(=O)(=O)Nc2cc(SCC(=O)O)c(O)c3ccccc23)cc1
- CC50 [15]: 9.31 µM (active)

- AC50 [16]: 5.41 µM (active)
Structure (SMILES): O=C(O)CCNc1nc(-c2ccccc2)nc2ccccc12

Continued, molecule first:

Structure (SMILES): N#C[C@H]1[C@@H](c2ccc(C#Cc3ccc(F)cc3)cc2)[C@H](CO)N1C(=O)Nc1ccc(F)cc1
- AC50 (Paired box protein Pax-8): 12.3 µM (active)
- AC50 [1]: 14.1 µM (active)
- AC50 [2]: 19.6 µM (active)
- AC50 [3]: 44.7 µM (active)
- AC50 [4]: 23.5 µM (active)
- AC50 [5]: 14 µM (active)
- AC50 [6]: 30.1 µM (active)
- AC50 [7]: 19.2 µM (active)
- AC50 [8]: 20.5 µM (active)
- AC50 [9]: 21.1 µM (active)
- AC50 [10]: 13.2 µM (active)

Structure (SMILES): Cc1cccc(C(=O)Nc2cccc(NC(=O)c3ccccc3OCC(C)C)c2)c1
- IC50 [11]: 3.39 µM (active)
- IC50 [12]: 0.206 µM (active)

Structure (SMILES): COc1cc(C(=O)NC2CC3CCCC(C2)N3CC(=O)Nc2ccc(C)cc2)cc(OC)c1OC (stereo not drawn)
- IC50 [13]: > 79 µM (inactive)
- IC50 [14]: > 79 µM (inactive)

Structure (SMILES): O=C(C1CCN(c2ccccn2)CC1)N(CC1CC1)c1ccc(Cl)cc1
- IC50 [17]: 0.0288 µM (active)
- IC50 (Vasopressin V1b receptor): 18.9 µM (inactive)
- IC50 (Vasopressin V2 receptor): 28.3 µM (inactive)
- IC50 [18]: 9.6 µM (active)
